Source: PubChem BioAssay AID2060484 (Molecular Pharmacology Branch, DTP, NCI, 2025)

Tested on: SUM149PT spheroids with HUVEC/MSC, viability
Assay: Anticancer human tumor SUM149PT cell line growth inhibition [GQUAD];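 note: spheroids exposed to drugs for seven days before readout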;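 for viability, T/C: percent viability relative to DMSO vehicle control taken as 100%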
Details: for IC50: curve of first compound; for viability, T/C: stronger effect = lower value
Summary of the method: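 Viability of tumor cells grown as complex spheroids with endothelial and stromal cells, exposed to drug combinations. Top concentration at or near clinical Cmax (else 10 microM), diluted in half-log increments.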

[1] = second compound 0.0316 µM, first compound 0.0316 µM
[2] = second compound 0.0316 µM, first compound 0.1 µM
[3] = second compound 0.0316 µM, first compound 0.316 µM
[4] = second compound 0.0316 µM, first compound 1 µM
[5] = second compound 0.0316 µM, first compound 3.16 µM
[6] = second compound 0.0316 µM, first compound 10 µM
[7] = second compound 0.1 µM, first compound 0.0316 µM
[8] = second compound 0.1 µM, first compound 0.1 µM
[9] = second compound 0.1 µM, first compound 0.316 µM
[10] = second compound 0.1 µM, first compound 1 µM
[11] = second compound 0.1 µM, first compound 3.16 µM
[12] = second compound 0.1 µM, first compound 10 µM
[13] = second compound 0.316 µM, first compound 0.0316 µM
[14] = second compound 0.316 µM, first compound 0.1 µM
[15] = second compound 0.316 µM, first compound 0.316 µM
[16] = second compound 0.316 µM, first compound 1 µM
[17] = second compound 0.316 µM, first compound 3.16 µM
[18] = second compound 0.316 µM, first compound 10 µM
[19] = second compound 1 µM, first compound 0.0316 µM
[20] = second compound 1 µM, first compound 0.1 µM
[21] = second compound 1 µM, first compound 0.316 µM
[22] = second compound 1 µM, first compound 1 µM
[23] = second compound 1 µM, first compound 3.16 µM
[24] = second compound 1 µM, first compound 10 µM
[25] = second compound 3.16 µM, first compound 0.0316 µM
[26] = second compound 3.16 µM, first compound 0.1 µM
[27] = second compound 3.16 µM, first compound 0.316 µM
[28] = second compound 3.16 µM, first compound 1 µM
[29] = second compound 3.16 µM, first compound 3.16 µM
[30] = second compound 3.16 µM, first compound 10 µM
[31] = second compound 10 µM, first compound 0.0316 µM
[32] = second compound 10 µM, first compound 0.1 µM
[33] = second compound 10 µM, first compound 0.316 µM
[34] = second compound 10 µM, first compound 1 µM
[35] = second compound 10 µM, first compound 3.16 µM
[36] = second compound 10 µM, first compound 10 µM

CC1COCCN1c1cc(C2(S(C)(=N)=O)CC2)nc(-c2ccnc3[nH]ccc23)n1 (centres undefined) + Cc1cnc(CNC(=O)c2c(=O)c3ccc(N4CCCN(C)CC4)nc3n3c2sc2ccccc23)cn1
IC50 (second compound 0.0316 µM): 249 nM | IC50 (second compound 0.1 µM): 164 nM | IC50 (second compound 0.316 µM): 97.9 nM | IC50 (second compound 1 µM): < 31.6 nM | IC50 (second compound 3.16 µM): < 31.6 nM | IC50 (second compound 10 µM): < 31.6 nM | viability, T/C [1]: 87% | viability, T/C [2]: 71.1% | viability, T/C [3]: 44.9% | viability, T/C [4]: 25.8% | viability, T/C [5]: 31.5% | viability, T/C [6]: 17.7% | viability, T/C [7]: 59.8% | viability, T/C [8]: 57.9% | viability, T/C [9]: 38.6% | viability, T/C [10]: 23.7% | viability, T/C [11]: 36% | viability, T/C [12]: 17.9% | viability, T/C [13]: 57.3% | viability, T/C [14]: 48.9% | viability, T/C [15]: 41.4% | viability, T/C [16]: 27.2% | viability, T/C [17]: 29.2% | viability, T/C [18]: 22.5% | viability, T/C [19]: 45.9% | viability, T/C [20]: 46% | viability, T/C [21]: 42.9% | viability, T/C [22]: 31.8% | viability, T/C [23]: 37.1% | viability, T/C [24]: 21.3% | viability, T/C [25]: 36.9% | viability, T/C [26]: 37.7% | viability, T/C [27]: 36.2% | viability, T/C [28]: 31.1% | viability, T/C [29]: 33.7% | viability, T/C [30]: 20.4% | viability, T/C [31]: 0.72% | viability, T/C [32]: 0.21% | viability, T/C [33]: 0.33% | viability, T/C [34]: 0.28% | viability, T/C [35]: 0.77% | viability, T/C [36]: 1.29%

C=CCn1c(=O)c2cnc(Nc3ccc(N4CCN(C)CC4)cc3)nc2n1-c1cccc(C(C)(C)O)n1 + Cc1[nH]c2ccc(F)cc2c1-c1nc2c3cccnc3c3ncccc3c2[nH]1
IC50 (second compound 0.0316 µM): 188 nM | IC50 (second compound 0.1 µM): 192 nM | IC50 (second compound 0.316 µM): 191 nM | IC50 (second compound 1 µM): 181 nM | IC50 (second compound 3.16 µM): 174 nM | IC50 (second compound 10 µM): 189 nM | viability, T/C [1]: 98.9% | viability, T/C [2]: 67% | viability, T/C [3]: 34.8% | viability, T/C [4]: 21% | viability, T/C [5]: 10.4% | viability, T/C [6]: 7.37% | viability, T/C [7]: 91.1% | viability, T/C [8]: 73.5% | viability, T/C [9]: 30.3% | viability, T/C [10]: 21.4% | viability, T/C [11]: 11.7% | viability, T/C [12]: 7.7% | viability, T/C [13]: 94.7% | viability, T/C [14]: 72.5% | viability, T/C [15]: 31.1% | viability, T/C [16]: 21.9% | viability, T/C [17]: 10.5% | viability, T/C [18]: 11.6% | viability, T/C [19]: 85.8% | viability, T/C [20]: 66.1% | viability, T/C [21]: 33.2% | viability, T/C [22]: 22.6% | viability, T/C [23]: 9.91% | viability, T/C [24]: 9.92% | viability, T/C [25]: 84.2% | viability, T/C [26]: 66.6% | viability, T/C [27]: 31% | viability, T/C [28]: 20.3% | viability, T/C [29]: 9.05% | viability, T/C [30]: 8.88% | viability, T/C [31]: 88.7% | viability, T/C [32]: 66.6% | viability, T/C [33]: 35.9% | viability, T/C [34]: 20.1% | viability, T/C [35]: 10.6% | viability, T/C [36]: 9.87%
